The nature of this experiment: bioautogram. In kind it is cell-based. The procedure:
To 110 ml. of methanol and 83 mg. of pre-reduced 5 percent palladium on carbon were added 83 mg. of p-nitrobenzyl 7-[2-(2-thienyl)acetamido]-3-fluoro-3-cephem-4-carboxylate. The mixture was hydrogenated at 53 psig. for one hour. The resulting mixture was filtered, the filtered catalyst was washed with methanol, and the methanol washings were added to the filtrate. The filtrate was then evaporated in vacuo. The residue was dissolved in ethyl acetate, and the ethyl acetate solution was extracted with dilute aqueous sodium bicarbonate. The sodium bicarbonate solution was washed with ethyl acetate, layered with ethyl acetate, and dilute aqueous HCl was added.

As for `O=C(Cc1cccs1)NC1C(=O)N2C(C(=O)O)=C(F)CS[C@H]12` (stereo partly shown) [7-[2-(2-Thienyl)acetamido]-3-fluoro-3-cephem-4-carboxylic acid], the “biological activity by bioautogram” value is “biologically active”.

Source of the values: patent US4260745A, “3-Halo cephalosporins” (Eli Lilly and Company, priority 1979, dated 1981).
